# Results published in US20250177423A1, “PHOTORESPONSIVE PEPTIDE DELIVERY SYSTEM AND METHOD OF USING THE SAME” (THE UNIVERSITY OF HONG KONG, priority 2023, published 2025).
# Tests used:
# [1] = test system: laser induced CNV; experiment: Laser induced CNV mouse model, imageological examination (OCTA, FFA, OCT); format: in vivo, C57BL/6 mice; conditions: i.v. day 3 and 5, AS16 equivalent 2 mg/kg, day 7
# Description: Four laser spots were produced on the fundus of mice by 810 nm laser to induce CNV. Specifically, C57BL/6 mice (6-8 w) were anesthetized with 1% pentobarbital sodium (40 mg/kg). Then their pupils were dilated with 0.5% tropicamide eyedrops and received local anesthesia by tetracaine eye drops, followed by carboxymethylcellulose sodium eye drops for prevention of ocular surface dehydration. Each mouse's eyes were applied four laser (six in case of western blot analysis) burns (810 nm wavelength, 140 mW of power, 75 μm of spot size, 75 ms of duration) with OcuLight Infrared Laser System at almost equal distance to the optic nerve head. Afterwards, the mice received chloramphenicol eye drops for infection prevention and rested on heating pad until consciousness. […] On day 3 and day 5 after laser photocoagulation, 2 mg/kg AS16 peptide and quantity equivalent nanoLAMPs were administered intravenously through tail veins. […] On day 7 post CNV induction, FFA (fluorescence fundus angiography) and OCTA (optical coherence tomography angiography) images of each group was collected, and the mice were then euthanized. […] Only the scan that passed through the center of the lesion was used to measure the thickness and length of the CNV lesion, which was analyzed and calculated by using ImageJ software and GraphPad Prism. […]
# [2] = test system: HUVEC cells; experiment: Migration assay (trans-well); format: cell-based, human; conditions: without light irradiation; AS16 equivalent 5 μM; 24 h
# Description: 200 μL serum-free medium containing 2*10^4 HUVEC cells were seeded in the upper chamber of the trans-well and 600 μL full medium was loaded in the lower chamber. Different drugs were added to the upper chamber. The grouping and treatment method as well as the calculation was consistent with above.
# (§1) To verify the anti-angiogenic property of nanoLAMPs in vitro, tube formation assay, migration assay, and wound healing assay were also conducted on HUVECs and the concentration of each group was set equal to nanoLAMPs containing 5 μM AS16 peptide.
# [3] = test system: HUVEC cells; experiment: Wound healing assay; format: cell-based, human; conditions: without light irradiation; AS16 5 μM
# Description: 5*10^5 HUVEC cells were seeded in the 24-well plates and incubated until they reached 90% confluence. Afterwards, a scratch crossing each well was conducted by 200 μL pipette head. The cells were then be washed with PBS for 2 times to remove the flouting cells and incubated with 1 ml DMEM medium with 5% FBS. The grouping and treatment method was consistent with above. The data of each group was measured and analyzed by Image J and GraphPad Prism, respectively.
# as §1
# [4] = test system: laser induced CNV; experiment: Laser induced CNV mouse model, isolated tissue (choroidal flat mounts CD31/Ki-67, H&E); format: in vivo, C57BL/6 mice; conditions: without light irradiation; systemic administration
# Description: Four laser spots were produced on the fundus of mice by 810 nm laser to induce CNV. Specifically, C57BL/6 mice (6-8 w) were anesthetized with 1% pentobarbital sodium (40 mg/kg). Then their pupils were dilated with 0.5% tropicamide eyedrops and received local anesthesia by tetracaine eye drops, followed by carboxymethylcellulose sodium eye drops for prevention of ocular surface dehydration. Each mouse's eyes were applied four laser (six in case of western blot analysis) burns (810 nm wavelength, 140 mW of power, 75 μm of spot size, 75 ms of duration) with OcuLight Infrared Laser System at almost equal distance to the optic nerve head. Afterwards, the mice received chloramphenicol eye drops for infection prevention and rested on heating pad until consciousness. […] On day 3 and day 5 after laser photocoagulation, 2 mg/kg AS16 peptide and quantity equivalent nanoLAMPs were administered intravenously through tail veins. […] On day 7 post CNV induction, FFA (fluorescence fundus angiography) and OCTA (optical coherence tomography angiography) images of each group was collected, and the mice were then euthanized. […] Flat-mounted RPE-choroid slides were prepared by making 4 cuts from margin to the optic nerve, and the fluorescence images were acquired by confocal microscopy (LMS980 Carl Zeiss). The CNV lesion area was quantitatively analyzed by ImageJ software. […]
# [5] = test system: IL-2 and TNF-α gene expression in Jurkat T cells; experiment: RT-qPCR of cytokine gene expression in Jurkat T cells co-cultured with MDA-MB-231 cells (PD-L1 blockade); format: cell-based; conditions: Jurkat T cells after co-culture with MDA-MB-231 cells; FM12 released from cFM12 nanoparticles; vs PBS control
# Description: FIGS. 13A-F. BODIPY-caged FM12 peptide (cFM12) nanoparticles for photo-triggered PD-L1 blockade. […] (E) Size distribution of nanoparticles. (F) Schematic diagram of cFM12 nanoparticles. (*: p<0.05; **: p<0.01; ***: p<0.001). The data are presented as mean±SEM.
# To further explore whether the BODIPY photocage can be utilized to deliver other hydrophilic peptides, a peptide inhibitor (FPNWSLRPMNQM, SEQ ID NO: 2, FM12) targeting programmed death ligand 1 (PD-L1) was conjugated with BODIPY at N-terminus to synthesize BODIPY-caged FM12 (cFM12). The conjugate could also form stable polymeric nanoparticles with the help of PEG3.4K-PLA5K. […] For nanoparticle preparation, in brief, 2 μL of 10 mg/mL cFM12 was mixed with 2 μL of 100 mg/mL PEG3.4K-PLA5K in DMSO solution. […] As shown in FIGS. 13e and 13f, the fabricated nanoparticles had well-dispersed size distribution with diameter around 122 nm and PDI around 0.2.
compound,measurement,setting,value
"COc1ccc(C=CC2=[N+]3C(=C(CO)c4c(C)cc(C=Cc5ccc(OC)cc5)n4[B-]3(C)C)C(C)=C2)cc1 [BODIPY, (3,7-bis((E)-4-methoxystyryl)-1,5,5,9-tetramethyl-5H-4λ4,5λ4-dipyrrolo[1,2-c:2′,1′-f][1,3,2]diazaborinin-10-yl)methanol]",CNV area by OCTA,"[1]; with light irradiation (656 nm, 50mw/cm^2, 5 min)",negligible effect
ATWLPPRAANLLMAAS [AS16 peptide],HUVEC migration,[2],least migrated HUVECs
same,wound healing (recovery of scratches),[3],significant compromised recovery of generated scratches
same,CNV area by OCTA,[1]; without light exposure,negligible effect
same,"therapeutic effect compared with control group, tests in vivo",[4],negligible therapeutic effect
FPNWSLRPMNQM [FM12 peptide],gene expression level of IL-2,[5],promote the gene expression level
same,gene expression level of TNF-α,[5],promote the gene expression level
